Like-named read-outs stand apart in the source and are kept apart here.
What was measured:
EC1065 (IMP-1 CMY-2) = assay type: cell-based, Escherichia coli; conditions: EC1065; alone
Source text: (§1) Several strains simultaneously expressing both class A and class B carbapenemases, which were constructed using conjugation, were also included in the panel.

EC1068 (VIM-1) = assay type: cell-based, Escherichia coli; conditions: EC1068; alone
Source text: as §1

EC1061 (NDM-1, CMY-6) = assay type: cell-based, Escherichia coli; conditions: EC1061; alone
Source text: as §1

[1] = test system: EC1064 (NDM-1, CMY-6, CTX-M-15); assay type: cell-based, Escherichia coli; conditions: EC1064; alone
Source text: as §1

[2] = test system: KP1087 (KPC-2, CTX-M-15, SHV-11, TEM-1); assay type: cell-based, Klebsiella pneumoniae; conditions: KP1087; alone
Source text: (§2) The results are present in Table 6.
(§3) The results are present in Table 7.

[3] = test system: KP1081 (NDM-1, TEM-1, SHV-11, CMY-6, CTX-M-15); assay type: cell-based, Klebsiella pneumoniae; conditions: KP1081; alone
Source text: as §2, §3

ECLM1016 (NDM, KPC) = assay type: cell-based, Enterobacter cloacae; conditions: ECLM1016; alone
Source text: as §1

ECL1082 (VIM-1) = assay type: cell-based, Enterobacter cloacae; conditions: ECL1082; alone
Source text: as §1

ECLM1018 (VIM, KPC) = assay type: cell-based, Enterobacter cloacae; conditions: ECLM1018; alone
Source text: as §1

ECLM1014 (NDM, KPC) = assay type: cell-based, Enterobacter cloacae; conditions: ECLM1014; alone
Source text: as §1

ECLM1015 (NDM, KPC) = assay type: cell-based, Enterobacter cloacae; conditions: ECLM1015; alone
Source text: as §1

[4] = test system: ECL1057 (NDM-1, TEM-1, CTX-M-15); assay type: cell-based, Enterobacter cloacae; conditions: ECL1057; alone
Source text: as §1

ECL1036 (KPC) = assay type: cell-based, Enterobacter cloacae; conditions: ECL1036; alone
Source text: as §1

ECL1045 (VIM-1) = assay type: cell-based, Enterobacter cloacae; conditions: ECL1045; alone
Source text: as §1

ECLM1017 (VIM, KPC) = assay type: cell-based, Enterobacter cloacae; conditions: ECLM1017; alone
Source text: as §1

ECL1026 (KPC) = assay type: cell-based, Enterobacter cloacae; conditions: ECL1026; alone
Source text: as §1

ECLM1019 (VIM, KPC) = assay type: cell-based, Enterobacter cloacae; conditions: ECLM1019; alone
Source text: as §1

ECLM1013 (NDM, KPC) = assay type: cell-based, Enterobacter cloacae; conditions: ECLM1013; alone
Source text: as §1

ECL1055 (KPC) = assay type: cell-based, Enterobacter cloacae; conditions: ECL1055; alone
Source text: as §1

EA1019 (SHV-5, VIM-1) = assay type: cell-based, Enterobacter aerogenes; conditions: EA1019; alone
Source text: as §1

KPM1107 (NDM, KPC) = assay type: cell-based, Klebsiella pneumoniae; conditions: KPM1107; alone
Source text: as §1

KP1097 (IMP-1 SHV) = assay type: cell-based, Klebsiella pneumoniae; conditions: KP1097; alone
Source text: as §1

KP1054 (VIM-1, SHV-11) = assay type: cell-based, Klebsiella pneumoniae; conditions: KP1054; alone
Source text: as §1

KPM1123 (KPC-2 TEM SHV) = assay type: cell-based, Klebsiella pneumoniae; conditions: KPM1123; alone
Source text: as §1

KP1098 (IMP-26 TEM SHV) = assay type: cell-based, Klebsiella pneumoniae; conditions: KP1098; alone
Source text: as §1

[5] = test system: KPM1346 (NDM-1 TEM SHV CTX-M-15 CMY); assay type: cell-based, Klebsiella pneumoniae; conditions: KPM1346; alone
Source text: as §1

KPM1110 (NDM, KPC) = assay type: cell-based, Klebsiella pneumoniae; conditions: KPM1110; alone
Source text: as §1

KPM1345 (VIM-1 SHV) = assay type: cell-based, Klebsiella pneumoniae; conditions: KPM1345; alone
Source text: as §1

[6] = test system: KPM1347 (NDM-1 SHV CTX-M-15); assay type: cell-based, Klebsiella pneumoniae; conditions: KPM1347; alone
Source text: as §1

KP1014 (Vim-1, TEM, SHV) = assay type: cell-based, Klebsiella pneumoniae; conditions: KP1014; alone
Source text: as §1

KPM1108 (NDM, KPC) = assay type: cell-based, Klebsiella pneumoniae; conditions: KPM1108; alone
Source text: as §1

[7] = test system: KP1081 (NDM-1, TEM-1, SHV-11, CMY-6, CTX-M-15); assay type: cell-based, Klebsiella pneumoniae; conditions: KP1081; alone; remark: listed apart in the source
Source text: as §1

KPM1111 (NDM, KPC) = assay type: cell-based, Klebsiella pneumoniae; conditions: KPM1111; alone
Source text: as §1

KPM1344 (VIM-1) = assay type: cell-based, Klebsiella pneumoniae; conditions: KPM1344; alone
Source text: as §1

KP1065 (VIM-1, SHV-11) = assay type: cell-based, Klebsiella pneumoniae; conditions: KP1065; alone
Source text: as §1

KPM1099 (NDM, KPC) = assay type: cell-based, Klebsiella pneumoniae; conditions: KPM1099; alone
Source text: as §1

KP1070 (KPC TEM SHV) = assay type: cell-based, Klebsiella pneumoniae; conditions: KP1070; alone
Source text: as §1

KP1059 (VIM-1, SHV-11) = assay type: cell-based, Klebsiella pneumoniae; conditions: KP1059; alone
Source text: as §1

KP1064 (KPC TEM SHV) = assay type: cell-based, Klebsiella pneumoniae; conditions: KP1064; alone
Source text: as §1

[8] = test system: KP1084 (KPC-3, SHV-11, TEM-1); assay type: cell-based, Klebsiella pneumoniae; conditions: KP1084; alone
Source text: as §1

KP1061 (KPC TEM SHV) = assay type: cell-based, Klebsiella pneumoniae; conditions: KP1061; alone
Source text: as §1

KPM1109 (NDM, KPC) = assay type: cell-based, Klebsiella pneumoniae; conditions: KPM1109; alone
Source text: as §1

KP1004 (KPC TEM SHV) = assay type: cell-based, Klebsiella pneumoniae; conditions: KP1004; alone
Source text: as §1

KPM1122 (NDM, VIM) = assay type: cell-based, Klebsiella pneumoniae; conditions: KPM1122; alone
Source text: as §1

KPM1097 (NDM, KPC) = assay type: cell-based, Klebsiella pneumoniae; conditions: KPM1097; alone
Source text: as §1

C[C@@H](O)[C@H]1C(=O)N2C(C(=O)O)=C(S[C@@H]3CN[C@H](C(=O)N(C)C)C3)[C@H](C)[C@H]12 [Meropenem, reference compound]
Carbapenem MIC alone (EC1065 (IMP-1 CMY-2)): Y (MIC of 1 μg/mL to 10 μg/mL)
Carbapenem MIC alone (EC1068 (VIM-1)): Z (MIC of greater than 10 μg/mL)
Carbapenem MIC alone (EC1061 (NDM-1, CMY-6)): Z (MIC of greater than 10 μg/mL)
Carbapenem MIC alone [1]: Z (MIC of greater than 10 μg/mL)
Carbapenem MIC alone [2]: Z (MIC of greater than 10 μg/mL)
Carbapenem MIC alone [3]: Z (MIC of greater than 10 μg/mL)
Carbapenem MIC alone (ECLM1016 (NDM, KPC)): Z (MIC of greater than 10 μg/mL)
Carbapenem MIC alone (ECL1082 (VIM-1)): Y (MIC of 1 μg/mL to 10 μg/mL)
Carbapenem MIC alone (ECLM1018 (VIM, KPC)): Z (MIC of greater than 10 μg/mL)
Carbapenem MIC alone (ECLM1014 (NDM, KPC)): Z (MIC of greater than 10 μg/mL)
Carbapenem MIC alone (ECLM1015 (NDM, KPC)): Z (MIC of greater than 10 μg/mL)
Carbapenem MIC alone [4]: Z (MIC of greater than 10 μg/mL)
Carbapenem MIC alone (ECL1036 (KPC)): Y (MIC of 1 μg/mL to 10 μg/mL)
Carbapenem MIC alone (ECL1045 (VIM-1)): Y (MIC of 1 μg/mL to 10 μg/mL)
Carbapenem MIC alone (ECLM1017 (VIM, KPC)): Z (MIC of greater than 10 μg/mL)
Carbapenem MIC alone (ECL1026 (KPC)): Y (MIC of 1 μg/mL to 10 μg/mL)
Carbapenem MIC alone (ECLM1019 (VIM, KPC)): Z (MIC of greater than 10 μg/mL)
Carbapenem MIC alone (ECLM1013 (NDM, KPC)): Z (MIC of greater than 10 μg/mL)
Carbapenem MIC alone (ECL1055 (KPC)): Y (MIC of 1 μg/mL to 10 μg/mL)
Carbapenem MIC alone (EA1019 (SHV-5, VIM-1)): Z (MIC of greater than 10 μg/mL)
Carbapenem MIC alone (KPM1107 (NDM, KPC)): Z (MIC of greater than 10 μg/mL)
Carbapenem MIC alone (KP1097 (IMP-1 SHV)): Z (MIC of greater than 10 μg/mL)
Carbapenem MIC alone (KP1054 (VIM-1, SHV-11)): Z (MIC of greater than 10 μg/mL)
Carbapenem MIC alone (KPM1123 (KPC-2 TEM SHV)): Z (MIC of greater than 10 μg/mL)
Carbapenem MIC alone (KP1098 (IMP-26 TEM SHV)): Z (MIC of greater than 10 μg/mL)
Carbapenem MIC alone [5]: Z (MIC of greater than 10 μg/mL)
Carbapenem MIC alone (KPM1110 (NDM, KPC)): Z (MIC of greater than 10 μg/mL)
Carbapenem MIC alone (KPM1345 (VIM-1 SHV)): Y (MIC of 1 μg/mL to 10 μg/mL)
Carbapenem MIC alone [6]: Z (MIC of greater than 10 μg/mL)
Carbapenem MIC alone (KP1014 (Vim-1, TEM, SHV)): Z (MIC of greater than 10 μg/mL)
Carbapenem MIC alone (KPM1108 (NDM, KPC)): Z (MIC of greater than 10 μg/mL)
Carbapenem MIC alone [7]: Z (MIC of greater than 10 μg/mL)
Carbapenem MIC alone (KPM1111 (NDM, KPC)): Z (MIC of greater than 10 μg/mL)
Carbapenem MIC alone (KPM1344 (VIM-1)): Z (MIC of greater than 10 μg/mL)
Carbapenem MIC alone (KP1065 (VIM-1, SHV-11)): Y (MIC of 1 μg/mL to 10 μg/mL)
Carbapenem MIC alone (KPM1099 (NDM, KPC)): Z (MIC of greater than 10 μg/mL)
Carbapenem MIC alone (KP1070 (KPC TEM SHV)): Z (MIC of greater than 10 μg/mL)
Carbapenem MIC alone (KP1059 (VIM-1, SHV-11)): Z (MIC of greater than 10 μg/mL)
Carbapenem MIC alone (KP1064 (KPC TEM SHV)): Z (MIC of greater than 10 μg/mL)
Carbapenem MIC alone [8]: Z (MIC of greater than 10 μg/mL)
Carbapenem MIC alone (KP1061 (KPC TEM SHV)): Y (MIC of 1 μg/mL to 10 μg/mL)
Carbapenem MIC alone (KPM1109 (NDM, KPC)): Z (MIC of greater than 10 μg/mL)
Carbapenem MIC alone (KP1004 (KPC TEM SHV)): Z (MIC of greater than 10 μg/mL)
Carbapenem MIC alone (KPM1122 (NDM, VIM)): Z (MIC of greater than 10 μg/mL)
Carbapenem MIC alone (KPM1097 (NDM, KPC)): Z (MIC of greater than 10 μg/mL)

From US9132140B2, “Boronic acid derivatives and therapeutic uses thereof” (Rempex Pharmaceuticals, Inc., priority 2013, dated 2015)
